Data published in publication PMC6010013, “Synthesis, physiochemical property and antimicrobial activity of novel quaternary ammonium salts” (Journal of Enzyme Inhibition and Medicinal Chemistry, 2017).
Like-named read-outs stand apart in the source and are kept apart here.

How the values were obtained:
β-H-tococcus = assay: MBC, agar plating of dilutions without growth; type: cell-based; conditions: 99.9% bactericidal; for MBC: read-out: Minimal bactericidal concentration (MBC)
Description: In this paper, antimicrobial activities of 24 QASs were detected by quantitative tests. […] Benzalkonium chloride (BZK) and chlorhexidine acetate (CA) was selected as positive controls. Representative compound POT-C12QAS (2) which synthesised and evaluated in previous work was also taken as a reference compound in MIC, MBC and cytotoxicity tests. […]
agriculture were used as target pathogens in this study, including three strains of Gram-positive bacteria (S. Aureus, α-H-tococcus, β-H-tococcus), three strains of Gram-negative bacteria (E. coli, P. aeruginosa, Proteus vulgaris) and four strains of fungi (Canidia albicans, Cytospora mandshurica, Physalospora piricola, Aspergillus niger). The antimicrobial tests were assayed, according to standard CLSI methods for antimicrobial dilution susceptibility tests to measure the minimum inhibitory concentration (MIC) and minimum bactericidal concentration (MBC)2.
A broth tube dilution method was followed to determine the MIC values for all the screened compounds against the micro-organisms, and for comparison benzalkonium chloride (BZK) and chlorhexidine acetate (CA) was used as a reference. For sample preparation, each of the test compounds and reference were dissolved in DMSO or sterile water at a concentration of 1600 μg/mL, and further dilutions of the compounds and reference in culture medium MHB (Muller-Hinton Broth) were prepared at the required quantities of 400, 200, 100 etc., down to 0.39 μg/mL. Bacterial strains and fungal strains were maintained on MHA (Muller-Hinton Agar) medium at 37℃ or 28 ℃ for 12 h or 72h, respectively. The microbial inocula were prepared by suspension in 10 mL of culture medium for colonies from culture on MHA. The cell density of each inoculum was adjusted in culture medium of a 0.5 McFarland standard (1-2×10^8 CFU/mL). The final amount applied was 10^5 CFU/mL for bacteria and fungi. The microbial inocula were added to the twofold diluted samples. One growth control tube was prepared […] the addition of the compound and one blank tube was prepared without the addition of the microorganism. MIC values were read after incubation at 37℃ or 28 ℃ for bacterial and fungal strains, respectively. […]
was placed on agar plates in triplicate, and incubated at 37℃ or 28 ℃ for 12 h or 72h. The number of colonies on each plate was read, and the MBC was determined as the lowest concentration that achieved a 99.9% bactericidal in the agar plate.

Haemolysis assay = type: cell-based; conditions: human red blood cells (erythrocyte suspension), 1 h at 37 ℃, read-out: Haemolysis rate; for hemolysis at 1 h, 12.5 μg/mL: 12.50 μg/mL
Procedure: (§1) The surfactant may be absorbed and penetrate to the cell membrane, where it makes osmotic phenomena by altering the permeability of membrane, which in turn causes the cellular lysis. Haemolysis assay gives quantitative estimation about haemoglobin release when red blood cells are treated with QASs. Haemolytic assay of QASs at different concentration was carried out in Table 4. […] For 5a-b, 6a-b, 10a-c, 13a-b, and 16a-d, their safe concentration can more than 100 μg/mL. Compared with BZK and CA, all QASs were safe to be used when they circulated into the blood in low concentration. […]
(§2) The human blood from healthy individual was collected in a tube containing heparin, and the blood was centrifuged at 1500 rpm for 3 min. The […] (Erythrocyte) was collected and plasma was discarded and further washed five times with sterile normal saline solution. Then the cells were diluted to 0.2% of their volume with normal saline solution. 2 mL of the diluted red blood cells suspension was mixed with (a) 2 mL of normal salinesolution as a negative control; (b) 2 mL of distilled water as a positive control; (c) 2 mL of QAS solution which were dispersed into normal saline solution at the different concentrations ranging from 3.125 to 400 μg/mL. Then the mixtures were shaken well and incubated for 1 h at 37 ℃. Finally, the mixtures were centrifuged for 5min at 2000 r/min and the absorbances of supernatant at 540 nm was measured by a microplate reader (Multiskan MK3-Thermo Labsystems, USA). The hemolysis ratio was calculated as follows: The hemolysis ratio(%) = (OD Sample−OD Negative)/(OD Positive −OD Negative) ×100%. The hemolysis evaluation of QASs was performed in triplicate and results were expressed as the mean ± SD.

[1] = test system: human immortalised epidermal (HaCat) cell line; assay: Cytotoxicity, MTT assay; type: cell-based
Procedure: (§3) These six series of antimicrobial compounds may be applied to daily or clinical disinfectants for unbroken skin and trauma, or agricultural fungicides alternatively. Thus, their cytotoxicity for skin or body tissues are crucial. In this study, the cytotoxicity of target compounds was evaluated for human immortalised epidermal (HaCat) and human normal liver (LO2) cell line using MTT assay. […] The IC50 values of 5a, 6a, 10a, 16a, 16 b were about more than 50 μg/mL for LO2 and HaCat.
(§4) Cytotoxicity Testing with MTT Method
(§5) Human immortalized epidermal cells (HaCat) line were cultured in Dulbecco’s modified Eagle’s medium containing 10% fetal bovine serum, 1% penicillin, and 1% streptomycin at 37°C in a 5% CO2/95% air incubator MCO-15AC (SANYO). Human normal liver cells (LO2) line were cultured in Roswell Park Memorial Institute medium containing 10% fetal bovine serum, 1% penicillin, and 1% streptomycin at 37°C in a 5% CO2/95% air incubator MCO-15AC (SANYO). HaCat or LO2 cells in 96-well plate were adjusted to 1.0 × 10^5 cells mL-1 and cells were passed and cell supernatant was pour out before plating on glass slide at 37°C, 5% CO2 for 24 h. Cells were pretreated with 100 μL QAS for 24 h and cell supernatant with QAS was pour out and washed with PBS buffer system. Then, the cells were treated with the MTT solution (MTT, 3-(4,5-dimethythiazol-2-yl)-2,5-diphenyl-tetrazolium bromide, 20 μL, 5 mg/mL) for 4 h. The dark blue formazan crystal formed in the intact cells was solubilized with dimethyl sulfoxide, and absorbance at 570 nm was measured with a microplate reader (Multiskan MK3-Thermo Labsystems, USA). The results were expressed as percentage of the control value from the normal cells without treatments of QAS. […]

[2] = test system: human normal liver (LO2) cell line; assay: Cytotoxicity, MTT assay; type: cell-based
Procedure: as §3, §4, §5

red blood cells = assay: Haemolysis assay; type: cell-based; conditions: human red blood cells, 1 h at 37 ℃
Procedure: as §1, §2

Compound	MBC (β-H-tococcus)	hemolysis at 1 h, 6.25 μg/mL (Haemolysis assay)	hemolysis at 1 h, 12.5 μg/mL (Haemolysis assay)	hemolysis at 1 h, 25 μg/mL (Haemolysis assay)	hemolysis at 1 h, 50 μg/mL (Haemolysis assay)	hemolysis at 1 h, 100 μg/mL (Haemolysis assay)	hemolysis at 1 h, 200 μg/mL (Haemolysis assay)	hemolysis at 1 h, 400 μg/mL (Haemolysis assay)	other results
[H]/N=C(\N/C(=N/[H])NCCCCCCNC(=N)NC(=N)Nc1ccc(Cl)cc1)Nc1ccc(Cl)cc1 [CA, chlorhexidine acetate, reference compound]	3.12 µg/mL	0.86 ± 0.28%	2.51 ± 0.87%	5.29 ± 1.22%	37 ± 3.78%	62.2 ± 3.53%	86 ± 3.82%	95.7 ± 3.54%	–
C[N+](CCO)(CCO)CCCCCCCCCCCCSc1nnc(-c2ccccc2)o1 [Compound 2, reference compound]	6.25 µg/mL	0.18 ± 0.05%	0.42 ± 0.13%	0.93 ± 0.41%	4.11 ± 0.89%	17.1 ± 2.34%	82.8 ± 3.18%	90.6 ± 4.23%	–
C[N+](CCO)(CCO)CCCCCCSc1nnc(-c2ccc(F)cc2)o1 [Compound 5a]	25 µg/mL	0.21 ± 0.03%	0.53 ± 0.15%	1.37 ± 0.87%	1.54 ± 0.96%	3.25 ± 1.23%	6.21 ± 3.21%	35.6 ± 4.87%	–
C[N+](CCO)(CCO)CCCCCCCCCCSc1nnc(-c2ccc(F)cc2)o1 [Compound 5c]	12.5 µg/mL	0.43 ± 0.16%	0.75 ± 0.19%	2.31 ± 0.67%	4.89 ± 0.53%	33.1 ± 4.87%	52.3 ± 6.34%	67.2 ± 5.89%	–
C[N+](CCO)(CCO)CCCCCCCCCCCCSc1nnc(-c2ccc(F)cc2)o1 [Compound 5d]	6.25 µg/mL	0.49 ± 0.12%	0.87 ± 0.27%	2.43 ± 0.82%	4.81 ± 0.74%	32.4 ± 6.78%	66.7 ± 5.21%	66.9 ± 4.12%	–
C[N+](CCO)(CCO)CCCCCCSc1nnc(-c2ccc(C(F)(F)F)cc2)o1 [Compound 6a]	25 µg/mL	0.15 ± 0.08%	0.35 ± 0.17%	0.51 ± 0.19%	0.99 ± 0.12%	3.38 ± 1.23%	7.09 ± 2.89%	41 ± 5.32%	–
C[N+](CCO)(CCO)CCCCCCCCSc1nnc(-c2ccc(C(F)(F)F)cc2)o1 [Compound 6b]	12.5 µg/mL	0.18 ± 0.06%	0.51 ± 0.08%	0.43 ± 0.1%	0.7 ± 0.18%	4.61 ± 0.31%	26.2 ± 3.68%	80.4 ± 4.98%	Cytotoxicity IC50 ([1]; HaCat cells, MTT, 24 h): 32.57 ± 2.69 µg/mL; Cytotoxicity IC50 ([2]; LO2 cells, MTT, 24 h): 38.72 ± 2.92 µg/mL
C[N+](CCO)(CCO)CCCCCCCCCCSc1nnc(-c2ccc(C(F)(F)F)cc2)o1.[Br-] [Compound 6c]	6.25 µg/mL	0.57 ± 0.15%	0.42 ± 0.13%	0.67 ± 0.13%	3.56 ± 1.32%	35.8 ± 5.1%	82.5 ± 6.12%	89.4 ± 4.35%	melting point: 102 to 103 °C
C[N+](CCO)(CCO)CCCCCCCCCCCCSc1nnc(-c2ccc(C(F)(F)F)cc2)o1.[Br-] [Compound 6d]	3.12 µg/mL	0.64 ± 0.19%	1.05 ± 0.28%	2.02 ± 3.45%	4.85 ± 4.65%	36.4 ± 6.35%	85.6 ± 4.86%	92.5 ± 3.87%	melting point: 88 to 90 °C
C[N+](CCO)(CCO)CCCCCCCCCCCCSc1nc2ccccc2s1 [Compound 13d]	~3.12 µg/mL	0.56 ± 0.13%	1.5 ± 0.72%	3.98 ± 1.03%	11.2 ± 2.86%	48.6 ± 3.54%	65.2 ± 3.91%	83.7 ± 4.12%	–
Benzalkonium chloride [BZK, reference compound]	–	–	–	–	–	–	–	–	Minimal bactericidal concentration (MBC) (β-H-tococcus): 1.56 µg/mL; Cytotoxicity IC50 [1]: 3.19 ± 0.26 µg/mL; Cytotoxicity IC50 [2]: 2.12 ± 0.43 µg/mL; Haemolysis rate (red blood cells; 6.25 μg/mL): 1.51 ± 0.31%; Haemolysis rate (red blood cells; 12.50 μg/mL): 1.39 ± 0.38%; Haemolysis rate (red blood cells; 25.00 μg/mL): 12.69 ± 1.87%; Haemolysis rate (red blood cells; 50.00 μg/mL): 63.85 ± 4.56%; Haemolysis rate (red blood cells; 100.00 μg/mL): 92.36 ± 3.78%; Haemolysis rate (red blood cells; 200.00 μg/mL): 96.28 ± 2.97%; Haemolysis rate (red blood cells; 400.00 μg/mL): 98.53 ± 1.23%
